Test results from patent US6974804B2, “Esters” (Unilever Home & Personal Care USA, division of Conopco, Inc., priority 2000, dated 2005).

Key:
Format in all cases: physicochemical
[1] = Stability testing of gels: crystal growth visible by eye on storage at 37° C.; settings: for Observations: 9% of REF1 and 1% of additional structurant
Experimental: Gels were made up using 10% structurant in a 60:40 mixture of Hydrogenated Polyisobutene (Panalene L14E):DC245. The gels, in sealed glass bottles, were left to stand for 18 hrs at room temperature, after which they were transferred to an oven thermostatically controlled to 37° C. Samples were checked periodically for signs of crystal growth visible by eye. REF1 is cellobiose octanonanoate.
Gels were made up and tested in accordance with the procedure in Example 6, as such or modified by employing a weight ratio of 9% of REF1 and 1% of an additional structurant as specified in Table 13 below.
The test procedure of Example 9 was repeated, but using ACB structurant REF2 alone as the structurant or to which a CHME structurant was added.

[2] = Visual assessment score (clarity of gel in 1 cm cuvette); settings: for Clarity Visual (assessment score): scale −12 to 8
Description: A gel contained within a 1 cm thick cuvette was placed directly on to a sheet of white paper on which 21 sets of figures where printed in black. The size and thickness of the figures varied systematically and were numbered from −12 (the largest, thickest set) through 0 to 8 (the smallest thinnest set) The score given to each gel was the highest numbered set which could be read clearly through the gel, the higher the number, the higher the clarity.

[3] = Light transmission at 580 nm (% T); settings: for Clarity % T: 580 nm
Experimental: The translucency of a composition may be measured by placing a sample of standardised thickness in the light path of a spectrophotometer and measuring transmittance, as a percentage of light transmitted in the absence of the gel.
This test was carried out using a dual-beam spectrophotometer. The sample of composition was poured hot into a 4.5 ml cuvette made of poly(methyl-methacrylate) (PMMA) and allowed to cool to an ambient temperature of 20-25° C. Such a cuvette gives a 1 cm thickness of composition. […] A transmittence measured at any temperature in the range from 20-25° C. is usually adequately accurate, but measurement is made at 22° C. if more precision is required.

[4] = DSC of gels: fibre dissolution temperature (FDT) and solubility of structurant; settings: for Solubility of structurant at 25° C.: from DSC of gel, relative to benchmark REF 2; for FDT: gel heated at 5 K/min in DSC, peak temperature of the highest peak
Experimental: In this Example the Fibre dissolution temperature (FDT) is measured in the DSC process described later herein, by observing when the fibres dissolve whilst the temperature of sample rises. FDT is taken to be the peak temperature of the highest peak.
In REF2 and REF3, the acyl substituents at the other seven cellobiose sites are nonanoyl.
Samples of gel (about 20 mg) were sealed in stainless steel capsules for DSC. An empty stainless steel capsule was used as the physical reference. The samples were subjected to the following temperature programme:
The sample was heated to 100° C. and held at 100° C. for 1 minute, in order to obtain an isotropic solution. The sample was then cooled at 5 K/min to −20° C. The sample was held at −20° C. for 1 minute. The sample is now a gel on the bottom of the sample capsule prepared in a reproducible manner. The gel was then heated at 5 K/min to 100° C. Data was also obtained with empty stainless steel pans as both physical sample and reference. This blank data was later subtracted from the sample data to remove any curvature in the base line.

[5] = Gelling of water-immiscible cosmetic liquids in 96 well glass micro-titre plate; design: key: gel; g4: gel after overnight (18 hrs) storage at 4° C.; g22: gel after overnight (18 hrs) storage at 22° C.; sg: soft gel; sg22: soft gel after overnight (18 hrs) storage at 22° C.; solution; *: the test at 4° C. was not carried out; settings: for gelling of ISA: 150° C. 2.5 hours, cooled to ambient
How it was run: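 Gel formation was scored by eye and by poking with a micro-spatula at three points: on cooling to room temperature, after 18 h at 18 °C, and after another 18 h at 4 °C. Before this, mixtures of cosmetic liquid with roughly 5% or 10% cellobiose ester were heated at 150 °C for 2.5 h.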

[6] = 10% structurant in 60:40 Panalene L14E:DC245, after 17 days at 37° C.
[7] = 9% REF2 and 1% of the specified ester in 60:40 hydrogenated polydecene:DC245
[8] = 60:40 hydrogenated polydecene:DC245 gelled with 9% REF2 and 1% of the specified cellobiose ester
[9] = 5% cellobiose ester in Fluid AP
[10] = 5% cellobiose ester in Mineral oil
[11] = 5% cellobiose ester in Polydecene
[12] = 10% cellobiose ester in Fluid AP
[13] = 10% cellobiose ester in Mineral oil
[14] = 10% cellobiose ester in Polydecene
[15] = 9% REF4 plus 1% of the named material

Row | Molecule | Clarity Visual (assessment score) [2, 7] | Clarity Visual (appearance) [2, 8] | Clarity % T [3, 7] | Solubility of structurant at 25° C. [4] | FDT [4] | gelling of DC556 ([5]; 5% cellobiose ester in DC556) | gelling of Fluid AP [5, 9] | gelling of ISA ([5]; 5% cellobiose ester in ISA) | gelling of Mineral oil [5, 10] | gelling of Polydecene [5, 11] | gelling of DC556 ([5]; 10% cellobiose ester in DC556) | gelling of Fluid AP [5, 12] | gelling of ISA ([5]; 10% cellobiose ester in ISA) | gelling of Mineral oil [5, 13] | gelling of Polydecene [5, 14] | also measured
1 | CCCCCCCCC(=O)OC[C@H]1O[C@@H](O[C@H]2[C@H](OC(=O)CCCCCCCC)[C@@H](OC(=O)CCCCCCCC)C(OC(=O)CCCCCCCC)O[C@@H]2COC(=O)CCCCCCCC)[C@H](OC(=O)CCCCCCCC)[C@@H](OC(=O)CCCCCCCC)[C@@H]1OC(=O)CCCCCCCC (stereo partly shown) [REF 2, cellobiose octanonanoate] | slight haze 5 | transparent/ | 41% | Benchmark. Some | 47 °C |  |  |  |  |  |  |  |  |  |  | Observation ([1]; 10% structurant in 60:40 Panalene L14E:DC245, after 7 days at 37° C.): Slight loss of clarity after 7 days; Observation ([1]; 10% structurant in 60:40 Panalene L14E:DC245, after 7 days at 37° C., listed as REF2): Slight loss of clarity after 7 days at 37 °C; Observation ([1]; 10% structurant in 60:40 Panalene L14E:DC245, after 8 days at 37° C.): Fine crystals on surface after 8; Observation ([1]; 10% structurant in 60:40 Panalene L14E:DC245, after 8 days at 37° C., listed as REF2): Fine crystals on surface after 8 days at 37 °C; Observation ([1]; 10% structurant in 60:40 Panalene L14E:DC245, after 9 days at 37° C.): Fine needle crystals throughout gel; Observation ([1]; 10% structurant in 60:40 Panalene L14E:DC245, after 9 days at 37° C., listed as REF2): Fine needle crystals throughout gel after 9; Observation ([1]; 10% structurant in 60:40 Panalene L14E:DC245, after 13 days at 37° C., listed as REF2): More needle crystals in gel bulk and crystal; Observation [1, 6]: Large amount of crystals throughout; % T Ex 1.12 ([3]; CHME = Ex 1.12, CHME:REF2 at stated weight ratio, total 10% in 60:40 Silkflo 364NF:DC245): 41%; % T Ex 1.13 ([3]; CHME = Ex 1.13, CHME:REF2 at stated weight ratio, total 10% in 60:40 Silkflo 364NF:DC245): 41%
2 | cellobiose heptanonanoate monocyclohexanoate [Ex 1.10] | slight haze 6 | transparent/ | 42% |  |  | gel | gel | g22 | gel | gel | gel | gel | gel | gel | gel | Observations ([1]; after 12 days at 37° C.): No crystal growth after 12 days at 37 °C; Observation [1, 6]: No crystals after 17 days.; Observation ([1]; REF2 to which the CHME structurant was added, after 11 days at 37° C.): Some needle crystals on surface after 11; Observation ([1]; REF2 to which the CHME structurant was added, after 12 days at 37° C.): Some needle crystals in gel bulk after 12; Visual ([2]; gel in 60:40 w/w Silkflo 364:DC245, score scale −12 to 8): >8; gelling of IPM ([5]; 5% cellobiose ester in IPM): sol; gelling of IPM ([5]; 10% cellobiose ester in IPM): g4
3 | CCCCCCCCC(=O)OCC1OC(OC2C(COC(=O)CCCCCCCC)OC(OC(C)=O)C(OC(=O)CCCCCCCC)C2OC(=O)CCCCCCCC)C(OC(=O)CCCCCCCC)C(OC(=O)CCCCCCCC)C1OC(=O)CCCCCCCC (mixture of isomers) [Ex 1.5] | > 8 | transparent | 49% | Less soluble. No | 50 °C | g22 | gel | g22 | g22 | gel | gel | gel | gel | gel | gel | 
4 | CCCCCCCCC(=O)OCC1OC(OC2C(COC(=O)CCCCCCCC)OC(OC(=O)CCCCCCCC)C(OC(=O)CCCCCCCC)C2OC(=O)CCCCCCCC)C(OC(=O)CCCCCCCC)C(OC(=O)CCCCCCCC)C1OC(=O)CCCCCCCC (mixture of isomers) [REF 3, reference compound] | translucent 4 | transparent/ | 46% | Slightly less soluble | 47 °C |  |  |  |  |  |  |  |  |  |  | Observations ([1]; after 1 day at 37° C.): Some crystal growth on gel surface after; Observations ([1]; after 9 days at 37° C.): Crystals throughout gel after 9 days at; Observations ([1]; after 13 days at 37° C.): 37° C.; More crystals throughout gel after
5 | CCCCCCCCCC(=O)OCC1OC(OC2C(COC(=O)CCCCCCCCC)OC(OC(=O)c3ccc(-c4ccccc4)cc3)C(OC(=O)CCCCCCCCC)C2OC(=O)CCCCCCCCC)C(OC(=O)CCCCCCCCC)C(OC(=O)CCCCCCCCC)C1OC(=O)CCCCCCCCC (mixture of isomers) [Ex 2.9] |  |  |  |  |  | gel | gel | g22 | sg | gel | gel | gel | gel | gel | gel | Clarity Visual (appearance) ([2]; 9% REF4 plus 1% of the named material in 60:40 hydrogenated polydecene:DC245): translucent; Clarity Visual (assessment score) [2, 15]: −3; Clarity % T [3, 15]: 7.7%
6 | CCCCCCCCC(=O)OCC1OC(OC2C(COC(=O)CCCCCCCC)OC(OC(C)=O)C(OC(=O)CCCCCCCC)C2OC(=O)CCCCCCCC)C(OC(=O)CCCCCCCC)C(OC(=O)CCCCCCCC)C1OC(=O)CCCCCCCC (mixture of isomers) [Ex 1.6] | > 8 | transparent | 49% | Less soluble. No | 70 °C | sg22 | sg | sg | sg | gel | gel | gel | gel | gel | gel | 
7 | CCCCCCCCC(=O)OCC1OC(OC2C(COC(=O)CCCCCCCC)OC(OC(=O)c3ccc4ccccc4c3)C(OC(=O)CCCCCCCC)C2OC(=O)CCCCCCCC)C(OC(=O)CCCCCCCC)C(OC(=O)CCCCCCCC)C1OC(=O)CCCCCCCC (mixture of isomers) [Ex 1.4] | slight haze >8 | transparent/ | 38% |  |  | gel | gel | g22 | g22 | g22 | gel | gel | g22 | g22 | gel | gelling of Finsolv TN ([5]; 5% cellobiose ester in Finsolv TN): sol; gelling of IPM ([5]; 5% cellobiose ester in IPM): sol; gelling of Finsolv TN ([5]; 10% cellobiose ester in Finsolv TN): sol; gelling of IPM ([5]; 10% cellobiose ester in IPM): sol
